Reference: US20050061967A1, “Pattern recognition of whole cell mass spectra” (priority 2003, published 2005)

Columns and labels:
Assay in all cases: MIC of antibiotics, antibiotic resistance profile of Salmonella enterica isolates
Type in all cases: cell-based
[1] = tested on: Salmonella enterica serotype Heidelberg isolates
Experimental: (§1) The Salmonella enterica isolates were also typed by their antibiotic resistance and Pulsed-Field Gel Electrophoresis (PFGE) patterns. The isolates'=0 resistance profile, a common and obviously important phenotypic assay, was determined for twenty antibiotics commonly used in veterinary medicine to control Salmonella infections. PFGE is the most common and widely accepted genotypic method currently in use. The PFGE patterns were analyzed by statistical pattern recognition to produce a dendrogram in which similar gel patterns are clustered so that they appear in or near the same branch of a similarity “tree.” Then the two types of mass spectra for the same twenty-nine samples, under several variations, were also evaluated by pattern recognition.

[2] = tested on: Salmonella enterica serotype Muenster isolates
Description: (§2) To identify charge state of each ion cluster, we performed the following analyses on twenty-nine Salmonella enterica isolates (21 of serotype Heidelberg, 3 Anatum, 3 Worthington and 2 Muenster) from a turkey production environment. From the high mass end of the spectrum, we divided each ion peak by 2 or 3, look there for a corresponding peak. Ions at small integer dividends are then tabulated together with the largest, assumed to be a+1 charge state. Based on the assigned charge state, sum intensities (in the raw spectra) arising from nearby adducts or losses were calculated at their charge-state-predicted interval. The total around each same-charge-state cluster were added to the total for the same biomarker at its other identified charge states. Spectra were smoothed, the background was subtracted and then peaks were detected. Deconvolution was based on peaks at least 3% intensity of the base peak.
as §1

[3] = tested on: Salmonella enterica serotype Worthington isolates
Description: as §2, §1

[4] = tested on: Salmonella enterica serotype Anatum isolates
Description: as §2, §1

[5] = 6th of 29 isolates (ID cell blank)
[6] = 9th of 29 isolates (ID cell blank)
[7] = 29th of 29 isolates (ID printed 9)
[8] = 7th of 29 isolates (ID cell blank)
[9] = 18th of 29 isolates (ID printed 8)
[10] = 22nd of 29 isolates (ID printed 2)
[11] = 1st of 29 isolates (ID cell blank), turkey production environment
[12] = 2nd of 29 isolates (ID cell blank)
[13] = 3rd of 29 isolates (ID cell blank)

MIC [1, 5] [mg/L]	MIC [1, 6] [mg/L]	MIC ([1]; 10th of 29 isolates (ID 0)) [mg/L]	MIC ([1]; 11th of 29 isolates (ID 1)) [mg/L]	MIC ([1]; 13th of 29 isolates (ID 3)) [mg/L]	MIC ([1]; 14th of 29 isolates (ID 4)) [mg/L]	MIC ([1]; 15th of 29 isolates (ID 5)) [mg/L]	MIC ([1]; 20th of 29 isolates (ID 0)) [mg/L]	MIC [2, 7] [mg/L]	MIC ([3]; 26th of 29 isolates (ID 6)) [mg/L]	MIC [1, 8] [mg/L]	MIC ([1]; 16th of 29 isolates (ID 6)) [mg/L]	MIC [1, 9] [mg/L]	MIC ([1]; 21st of 29 isolates (ID 1)) [mg/L]	MIC [1, 10] [mg/L]	MIC ([1]; 24th of 29 isolates (ID 4)) [mg/L]	MIC [4, 11] [mg/L]	MIC [4, 12] [mg/L]	MIC [4, 13] [mg/L]	SMILES	other results
>512	512	512	512	512	512	512	512	32	64										CC[C@H]1OC(=O)[C@H](C)[C@@H](O[C@H]2C[C@@](C)(OC)[C@@H](O)[C@H](C)O2)[C@H](C)[C@@H](O[C@@H]2O[C@H](C)C[C@H](N(C)C)[C@H]2O)[C@](C)(O)C[C@@H](C)C(=O)[C@H](C)[C@@H](O)[C@]1(C)O [Er]	MIC ([1]; 4th of 29 isolates (ID cell blank)): 512 mg/L; MIC ([1]; 8th of 29 isolates (ID cell blank)): 512 mg/L; MIC ([2]; 28th of 29 isolates (ID printed 8)): 512 mg/L
>512	>512	>512	>512	>512	>512	>512	>512			>512	>512	>512	>512	>512	>512				CN[C@@H]1[C@H](O)[C@H](NC)[C@H]2O[C@@]3(O)C(=O)C[C@@H](C)O[C@H]3O[C@@H]2[C@H]1O [Spt]	
>256	>256	>256	>256	>256	>256	>256	>256	>256		>256	>256	>256	>256	>256	>256	256	256	256	CN[C@@H]1[C@H](O[C@H]2[C@H](O[C@H]3[C@H](O)[C@@H](O)[C@H](N=C(N)N)[C@@H](O)[C@@H]3N=C(N)N)O[C@@H](C)[C@]2(O)C=O)O[C@@H](CO)[C@H](O)[C@H]1O [St]	
		256							32						256	512	256	256	CN(C)C1C(O)=C(C(N)=O)C(=O)C2(O)C(O)=C3C(=O)c4c(O)cccc4C(C)(O)C3CC12 (stereo not drawn) [Te]	MIC ([1]; 5th of 29 isolates (ID cell blank)): 128 mg/L; MIC ([3]; 17th of 29 isolates (ID printed 7)): 32 mg/L; MIC ([3]; 27th of 29 isolates (ID printed 7)): 32 mg/L
